According to patent US20030104945A1, “2,4-Diamino-1,3,5-triazines, their preparation, and their use as herbicides and plant growth regulators” (priority 2001, published 2003):

How the values were obtained:
Type in all cases: in vivo
[1] = test system: harmful plants which are typical of rice crops such as, for example, Cyperus monti, Echinochloa crus-galli and Sagittaria pygmaea; assay: Activity against harmful plants in rice (paddy rice conditions); details: poured into paddy water at various dosages; scored about three weeks after application vs untreated controls; further: test concentration or dose not given here
Protocol: Transplanted and seeded rice and typical grass weeds and broad-leaved weeds in rice crops are grown in the greenhouse under paddy rice conditions (depth of the paddy water: 2-3 cm) in sealed plastic pots until they have reached the three-leaf stage (Echinochloa crus-galli 1.5-leaf). They are then treated with the compounds according to the invention. To this end, the formulated active substances are suspended, dissolved or emulsified in water and the product is poured into the paddy water of the test plants at various dosages. After the treatment has been carried out thus, the test plants are placed in the greenhouse under optimal growth conditions and kept like this over the entire experimental period.
About three weeks after application, the evaluation is carried out by is of visually scoring the plant damage in comparison with untreated controls.

[2] = test system: harmful plants such as Stellaria media, Lolium multiflorum, Amaranthus retroflexus, Sinapis alba, Avena sativa and Setaria viridis; assay: Pre-emergence herbicidal action (greenhouse pot test); details: application rate of 1 kg or less active substance per hectare, scored after 3 to 4 weeks vs untreated controls
Excerpt: Seeds and rhizome sections of monocotyledonous and dicotyledonous harmful plants are placed in sandy loam in plastic pots and covered with soil. The compounds according to the invention which are formulated in the form of wettable powders or emulsion concentrates at various rates, are then applied to the surface of the covering soil as aqueous suspension or emulsion at an application rate of 600 to 800 l of water per ha (converted).
After the treatment, the pots are placed in the greenhouse and kept under good growth conditions for the weeds. Visual scoring of the plant damage or the adverse effect on emergence is done after the test plants have emerged after an experimental period of 3 to 4 weeks in comparison with untreated controls.

[3] = test system: harmful plants such as Sinapis alba, Echinochloa crus-galli, Lolium multiflorum, Stellaria media, Cyperus iria, Amaranthus retroflexus, Setaria viridus and …; assay: Post-emergence herbicidal action (greenhouse pot test); details: three-leaf stage, application rate of 1 kg and less of active substance per hectare, scored after approx. 3 to 4 weeks vs untreated controls
Protocol: Seeds or rhizome sections of monocotyledonous and dicotyledonous weeds are placed in sandy loam soil in plastic pots, covered with soil and grown in the greenhouse under good growth conditions. Three weeks after sowing, the experimental plants are treated at the three-leaf stage. The compounds according to the invention, which are formulated as wettable powders or as emulsion concentrates, are sprayed at various rates onto the green plant organs at an application rate of 600 to 800 l of water per ha (converted). After the experimental plants have remained in the greenhouse for approx. 3 to 4 weeks under optimal growth conditions, the effect of the compositions is scored visually in comparison with untreated controls. The substances according to the invention also have a good herbicidal action against a broad spectrum of economically important grass weeds and broad-leaved weeds when applied post-emergence.

CC(Nc1nc(N)nc(C(C)(C)F)n1)[C@@H]1C[C@H]1c1ccccc1 (relative stereo) [Example 1-1]
very good herbicidal activity: herbicidal activity, visual scoring of plant damage [1] | herbicidal activity, visual scoring of plant damage or adverse effect on emergence [2] | herbicidal activity, visual scoring [3]

CC(F)c1nc(N)nc(NC(C)[C@@H]2C[C@H]2c2ccccc2)n1 (relative stereo) [Example 1-2, 2-Amino-4-(1-fluoroethyl)-6-[1-(trans-2-phenylcyclopropyl)-1-ethylamino]-1,3,5-triazine]
very good herbicidal activity: herbicidal activity, visual scoring of plant damage [1] | herbicidal activity, visual scoring of plant damage or adverse effect on emergence [2] | herbicidal activity, visual scoring [3]

CCC(F)c1nc(N)nc(NC(C)[C@@H]2C[C@H]2c2ccccc2)n1 (relative stereo) [Example 1-3]
very good herbicidal activity: herbicidal activity, visual scoring of plant damage [1] | herbicidal activity, visual scoring of plant damage or adverse effect on emergence [2] | herbicidal activity, visual scoring [3]

CC(C)c1nc(N)nc(NC(C)[C@@H]2C[C@H]2c2ccccc2)n1 (relative stereo) [Example 1-4]
very good herbicidal activity: herbicidal activity, visual scoring of plant damage [1] | herbicidal activity, visual scoring of plant damage or adverse effect on emergence [2] | herbicidal activity, visual scoring [3]

CCc1nc(N)nc(NC(C)[C@@H]2C[C@H]2c2ccccc2)n1 (relative stereo) [Example 1-6]
very good herbicidal activity: herbicidal activity, visual scoring of plant damage [1] | herbicidal activity, visual scoring of plant damage or adverse effect on emergence [2] | herbicidal activity, visual scoring [3]

CCC(Nc1nc(N)nc(C(C)(C)F)n1)[C@@H]1C[C@H]1c1ccccc1 (relative stereo) [Example 2-1, 2-Amino-4-(1-fluoro-1-methylethyl)-6-[1-(trans-2-phenylcyclopropyl)prop-1-ylamino]-1,3,5-triazine]
very good herbicidal activity: herbicidal activity, visual scoring of plant damage [1] | herbicidal activity, visual scoring of plant damage or adverse effect on emergence [2] | herbicidal activity, visual scoring [3]

CCC(Nc1nc(N)nc(C(C)C)n1)[C@@H]1C[C@H]1c1ccccc1 (relative stereo) [Example 2-2]
very good herbicidal activity: herbicidal activity, visual scoring of plant damage [1] | herbicidal activity, visual scoring of plant damage or adverse effect on emergence [2] | herbicidal activity, visual scoring [3]

CCC(Nc1nc(N)nc(C(C)F)n1)[C@@H]1C[C@H]1c1ccccc1 (relative stereo) [Example 2-3]
very good herbicidal activity: herbicidal activity, visual scoring of plant damage [1] | herbicidal activity, visual scoring of plant damage or adverse effect on emergence [2] | herbicidal activity, visual scoring [3]

CCC(F)c1nc(N)nc(NC(CC)[C@@H]2C[C@H]2c2ccccc2)n1 (relative stereo) [Example 2-8]
very good herbicidal activity: herbicidal activity, visual scoring of plant damage [1] | herbicidal activity, visual scoring of plant damage or adverse effect on emergence [2] | herbicidal activity, visual scoring [3]

CC(C)(F)c1nc(N)nc(NC(C2CC2)[C@@H]2C[C@H]2c2ccccc2)n1 (relative stereo) [Example 3-1]
very good herbicidal activity: herbicidal activity, visual scoring of plant damage [1] | herbicidal activity, visual scoring of plant damage or adverse effect on emergence [2] | herbicidal activity, visual scoring [3]

CC(C)c1nc(N)nc(NC(C2CC2)[C@@H]2C[C@H]2c2ccccc2)n1 (relative stereo) [Example 3-2]
very good herbicidal activity: herbicidal activity, visual scoring of plant damage [1] | herbicidal activity, visual scoring of plant damage or adverse effect on emergence [2] | herbicidal activity, visual scoring [3]

CC(F)c1nc(N)nc(NC(C2CC2)[C@@H]2C[C@H]2c2ccccc2)n1 (relative stereo) [Example 3-3]
very good herbicidal activity: herbicidal activity, visual scoring of plant damage [1] | herbicidal activity, visual scoring of plant damage or adverse effect on emergence [2] | herbicidal activity, visual scoring [3]

CCC(F)c1nc(N)nc(NC(C2CC2)[C@@H]2C[C@H]2c2ccccc2)n1 (relative stereo) [Example 3-4]
very good herbicidal activity: herbicidal activity, visual scoring of plant damage [1] | herbicidal activity, visual scoring of plant damage or adverse effect on emergence [2] | herbicidal activity, visual scoring [3]

CC(F)c1nc(N)nc(NC(C2CC2)[C@@H]2C[C@H]2c2cc(Cl)cc(Cl)c2)n1 (relative stereo) [Example 3-26]
very good herbicidal activity: herbicidal activity, visual scoring of plant damage [1] | herbicidal activity, visual scoring of plant damage or adverse effect on emergence [2] | herbicidal activity, visual scoring [3]

CCC(F)c1nc(N)nc(NC(C2CC2)[C@@H]2C[C@H]2c2cc(Cl)cc(Cl)c2)n1 (relative stereo) [Example 3-27]
very good herbicidal activity: herbicidal activity, visual scoring of plant damage [1] | herbicidal activity, visual scoring of plant damage or adverse effect on emergence [2] | herbicidal activity, visual scoring [3]

CC(C)c1nc(N)nc(NC(C2CC2)[C@@H]2C[C@H]2c2cc(Cl)cc(Cl)c2)n1 (relative stereo) [Example 3-28]
very good herbicidal activity: herbicidal activity, visual scoring of plant damage [1] | herbicidal activity, visual scoring of plant damage or adverse effect on emergence [2] | herbicidal activity, visual scoring [3]

CC(C)(F)c1nc(N)nc(NC(C2CCC2)[C@@H]2C[C@H]2c2ccccc2)n1 (relative stereo) [Example 4-1]
very good herbicidal activity: herbicidal activity, visual scoring of plant damage [1] | herbicidal activity, visual scoring of plant damage or adverse effect on emergence [2] | herbicidal activity, visual scoring [3]

CCC(F)(CC)c1nc(N)nc(NC(C2CCC2)[C@@H]2C[C@H]2c2ccccc2)n1 (relative stereo) [Example 4-2]
very good herbicidal activity: herbicidal activity, visual scoring of plant damage [1] | herbicidal activity, visual scoring of plant damage or adverse effect on emergence [2] | herbicidal activity, visual scoring [3]

CC(F)c1nc(N)nc(NC(C2CCC2)[C@@H]2C[C@H]2c2ccccc2)n1 (relative stereo) [Example 4-3]
very good herbicidal activity: herbicidal activity, visual scoring of plant damage [1] | herbicidal activity, visual scoring of plant damage or adverse effect on emergence [2] | herbicidal activity, visual scoring [3]

CCC(F)c1nc(N)nc(NC(C2CCC2)[C@@H]2C[C@H]2c2ccccc2)n1 (relative stereo) [Example 4-4]
very good herbicidal activity: herbicidal activity, visual scoring of plant damage [1] | herbicidal activity, visual scoring of plant damage or adverse effect on emergence [2] | herbicidal activity, visual scoring [3]

CC(C)c1nc(N)nc(NC(C2CCC2)[C@@H]2C[C@H]2c2ccccc2)n1 (relative stereo) [Example 4-27]
very good herbicidal activity: herbicidal activity, visual scoring of plant damage [1] | herbicidal activity, visual scoring of plant damage or adverse effect on emergence [2] | herbicidal activity, visual scoring [3]

CC(C)(F)c1nc(N)nc(NC(C2CCC2)[C@@H]2C[C@H]2c2cccc(Cl)c2)n1 (relative stereo) [Example 4-28]
very good herbicidal activity: herbicidal activity, visual scoring of plant damage [1] | herbicidal activity, visual scoring of plant damage or adverse effect on emergence [2] | herbicidal activity, visual scoring [3]

CC(C)(F)c1nc(N)nc(NC(CC2CC2)[C@@H]2C[C@H]2c2ccccc2)n1 (relative stereo) [Example 5-1]
very good herbicidal activity: herbicidal activity, visual scoring of plant damage [1] | herbicidal activity, visual scoring of plant damage or adverse effect on emergence [2] | herbicidal activity, visual scoring [3]

CC(C)c1nc(N)nc(NC(CC2CC2)[C@@H]2C[C@H]2c2ccccc2)n1 (relative stereo) [Example 5-2]
very good herbicidal activity: herbicidal activity, visual scoring of plant damage [1] | herbicidal activity, visual scoring of plant damage or adverse effect on emergence [2] | herbicidal activity, visual scoring [3]
